Results as given in US4665056A, “Dihydroorotic acid derivative and processes for preparing the same” (Tanabe Seiyaku Co., Ltd., priority 1984, dated 1987).

Columns and labels:
male STD/ddY mice [1] = assay: Antagonistic effect on pentobarbital anesthesia, intravenous administration; format: in vivo; conditions: intravenous administration 10 min after pentobarbital sodium 55 mg/kg i.p., TRH taken as 1
Procedure: (§1) The pharmacological activities of test compounds estimated by parenteral administration.
Pentobarbital sodium was intraperitoneally administered to male STD/ddY mice at a dose of 55 mg/kg. Ten minutes after the administration of pentobarbital sodium, a test compound dissolved in a physiological saline solution was intravenously administered to the mice which had lost the righting reflex. The duration of anesthesia was measured as the time from the end of administration of the test compound until the righting reflex regained. A physiological saline solution was administered to the control group of mice instead of the test compound solution.

male STD/ddY mice [2] = assay: Potentiating effect on action of Dopamine (L-Dopa in reserpinized mice); format: in vivo; conditions: intraperitoneal administration, reserpine 3 mg/kg s.c. and L-Dopa 200 mg/kg i.p., TRH taken as 1
Procedure: as §1
Reserpine was subcutaneously administered to male STD/ddY mice at a dose of 3 mg/kg, and about 16 to 20 hours later, L-Dopa was intraperitoneally administered to the mice at a dose of 200 mg/kg. Thirty minutes after administration of L-Dopa, a test compound dissolved in a physiological saline solution was administered intraperitoneally to the mice (when TRH was used as the test compound, it was administered 45 minutes after administration of L-Dopa). Spontaneous locomotor activity was measured by ANIMEX (i.e., an apparatus for mesuring spontaneous locomotor activity; manufactured by FERAD Co.) for 15 minutes starting from one hour after administration of L-Dopa. A physiological saline solution was administered to the control group of mice instead of the test compound solution.

male STD/ddY mice [3] = assay: Increasing effect on spontaneous locomotor activity, intraperitoneal administration; format: in vivo; conditions: measured for 60 minutes, TRH taken as 1
Procedure: (§2) Male STD/ddY mice were individually placed in Ambulometer (i.e., an apparatus for measuring spontaneous locomotor activity; manufactured by OHARA IKA Co.) for 30 minutes to acclimatize to the apparatus. Thereafter, a test compound dissolved in distilled water was orally administered to the mice and, immediately after administration of the test compound, the spontaneous locomotor activity was measured for 3 hours. Distilled water was administered to the control group of mice instead of the test compound solution.
as §1
(§3) The experiments were carried out in the same manner as described in Experiment 1 except that a test compound dissolved in a physiological saline solution was administered intraperitoneally to mice and, in estimating the increasing effect on spontaneous locomotor activity, said spontaneous locomotor activity was measured for 60 minutes immediately after administration of the test compound.

male STD/ddY mice [4] = assay: Antagonistic effect on reserpine-induced hypothermia, oral administration; format: in vivo; conditions: TRH tartrate taken as 1, parallel line assay method
Procedure: (§4) The pharmacological activities of test compounds estimated by oral administration.
(§5) A test compound dissolved in distilled water was orally administered to the mice, and the rectal temperature was measured 30, 60, 120, 180 and 300 minutes after the administration of the test compound. The increase in the body temperature of the medicated group of mice was compared with that of the control group of mice which received distilled water instead of the test compound solution.

male STD/ddY mice [5] = assay: Antagonistic effect on reserpine-induced hypothermia, intraperitoneal administration; format: in vivo; conditions: TRH taken as 1, parallel line assay method
Procedure: as §5, §1, §3

male JCL:SD rats [6] = conditions: TRH taken as 1; cited from earlier work
male STD/ddY mice [7] = conditions: published data (Brain Research Reviews 4, 389 (1982)); cited from earlier work
male STD/ddY mice [8] = assay: Antagonistic effect on pentobarbital anesthesia, oral administration; format: in vivo; conditions: oral administration 15 min before pentobarbital sodium 55 mg/kg i.p.
Procedure: as §4
A test compound dissolved in distilled water was orally administered to male STD/ddY mice. Fifteen minutes after the administration of the test compound, pentobarbital sodium was intraperitoneally administered to the mice at a dose of 55 mg/kg. The duration of anesthesia was measured as the time from the disappearance of righting reflex to the recovery thereof. Distilled water was administered to the control group of mice instead of the test compound solution.

male STD/ddY mice [9] = assay: Increasing effect on spontaneous locomotor activity, oral administration; format: in vivo; conditions: activity measured for 3 hours
Procedure: as §4, §2

male JCL:SD rats [10] = assay: TSH-releasing activity (side effect), serum TSH by radioimmunoassay; format: in vivo; conditions: intravenous administration, serum TSH 15 min after, TRH taken as 1, parallel line assay method
Procedure: A test compound dissolved in a 0.1% BSA (bovine serum albumin)-containing physiological saline solution was intravenously administered to male JCL:SD rats. Fifteen minutes after the administration, blood was taken from the abdominal aorta under anesthesia. Serum TSH levels were determined by the double-antibody radioimmunoassay method (Midgley et al., Endocrinology., 79, 10 (1966)). The BSA-containing physiological saline solution was administered to the control group of rats instead of the test compound solution.

male STD/ddY mice [11] = assay: Acute toxicity (LD50), intravenous; format: in vivo; conditions: mortality 24 hours after administration
Procedure: A test compound was intravenously administered to male STD/ddY mice and the acute toxicity (LD50) thereof was determined from mortality of mice 24 hours after administration of the test compound.

Structure (SMILES) | Potency ratio to TRH, antagonistic effect on pentobarbital anesthesia (male STD/ddY mice [1]) | Potency ratio to TRH, potentiating effect on action of Dopamine (male STD/ddY mice [2]) | Potency ratio to TRH, increasing effect on spontaneous locomotor activity (male STD/ddY mice [3]) | Potency ratio to TRH tartrate, antagonistic effect on reserpine-induced hypothermia (male STD/ddY mice [4]) | Potency ratio to TRH, antagonistic effect on reserpine-induced hypothermia (male STD/ddY mice [5]) | Potency ratio to TRH, TSH-releasing activity (published data) (male JCL:SD rats [6]) | LD50 (published data) (male STD/ddY mice [7]) | Minimum effective dose, antagonistic effect on pentobarbital anesthesia (male STD/ddY mice [8]) [mg/kg] | Minimum effective dose, increasing effect on spontaneous locomotor activity (male STD/ddY mice [9]) [mg/kg] | Therapeutic activity by oral administration | Potency ratio to TRH, TSH-releasing activity (male JCL:SD rats [10]) | LD50 (male STD/ddY mice [11])
NC(=O)[C@@H]1CCCN1C(=O)[C@H](Cc1c[nH]cn1)NC(=O)[C@@H]1CCC(=O)O1 [No. 1, (2,3,4,5-tetrahydro-2-oxo-L-5-furancarbonyl)-L-histidyl-L-prolinamide] | 1.3 | 2.5 | 3.5 | 3.4 | 5.7 | 1/40 | – | – | – | – | – | –
NC(=O)[C@@H]1CCCN1C(=O)[C@H](Cc1c[nH]cn1)NC(=O)c1cc(=O)[nH]c(=O)[nH]1 [No. 2, Orotyl-L-histidyl-L-prolinamide] | 1.9 | 2.6 | 3.8 | 13.0 | 7.4 | – | 1200 mg/kg, i.v. | – | – | – | – | –
NC(=O)[C@@H]1CCCN1C(=O)[C@H](Cc1cnc[nH]1)NC(=O)[C@@H]1CCC(=O)N1.O=C(O)C(O)C(O)C(=O)O [TRH tartrate] | – | – | – | – | – | – | – | > 100 | > 100 | – | – | –
NC(=O)[C@@H]1CCCN1C(=O)[C@H](Cc1cnc[nH]1)NC(=O)[C@@H]1CCC(=O)N1 [TRH, L-pyroglutamyl-L-histidyl-L-prolinamide] | – | – | – | – | – | – | 1450 mg/kg, i.v. | – | – | no substantial therapeutic effects | – | –
CN1C(=O)C[C@@H](C(=O)N[C@@H](Cc2c[nH]cn2)C(=O)N2CCC[C@H]2C(N)=O)NC1=O [The compound of the present invention, (1-methyl-L-4,5-dihydroorotyl)-L-histidyl-L-prolinamide] | 2.7 | 18.5 | 27.4 | 91.3 | 31.4 | – | – | 1 | 10 | excellent therapeutic activity even by oral administration | 1/30 | 1589 mg/kg, i.v.
